Assay results taken from ChEMBL document CHEMBL3046208, “Natural and synthetic podolactones with potential use as natural herbicide models” (2000).
Active and inactive are the calls of the source. The rule behind the calls is not given here.

Tests used:
Format in all cases: functional
[1] = test system: Triticum aestivum; assay: Inhibition of shoot length of Triticum aestivum (wheat) at 0.1 mM after 5 days relative to untreated control
[2] = test system: Solanum lycopersicum; assay: Stimulation of shoot length of Solanum lycopersicum (tomato) at 0.1 mM after 5 days relative to untreated control
[3] = test system: Solanum lycopersicum; assay: Inhibition of root length of Solanum lycopersicum (tomato) at 0.1 mM after 5 days relative to untreated control; settings: 120 h
[4] = test system: Hordeum vulgare; assay: Stimulation of root length of Hordeum vulgare (barley) at 0.1 mM after 5 days relative to untreated control
[5] = test system: Allium cepa; assay: Inhibition of shoot length of Allium cepa (onion) at 0.1 mM after 5 days relative to untreated control; settings: 120 h
[6] = test system: Lepidium sativum; assay: Inhibition of germination of Lepidium sativum at 0.1 mM after 5 days relative to untreated control
[7] = test system: Solanum lycopersicum; assay: Inhibition of shoot length of Solanum lycopersicum (tomato) at 0.1 mM after 5 days relative to untreated control; settings: 120 h
[8] = test system: Allium cepa; assay: Stimulation of germination of Allium cepa (onion) at 0.1 mM after 5 days relative to untreated control
[9] = test system: Solanum lycopersicum; assay: Inhibition of germination of Solanum lycopersicum (tomato) at 0.1 mM after 5 days relative to untreated control; settings: 120 h
[10] = test system: Lactuca sativa; assay: Stimulation of shoot length of Lactuca sativa cv. Nigra (lettuce) at 0.1 mM after 5 days relative to untreated control
[11] = test system: Hordeum vulgare; assay: Inhibition of root length of Hordeum vulgare (barley) at 0.1 mM after 5 days relative to untreated control; settings: 120 h
[12] = test system: Solanum lycopersicum; assay: Stimulation of germination of Solanum lycopersicum (tomato) at 0.1 mM after 5 days relative to untreated control
[13] = test system: Triticum aestivum; assay: Stimulation of shoot length of Triticum aestivum (wheat) at 0.1 mM after 5 days relative to untreated control
[14] = test system: Triticum aestivum; assay: Inhibition of root length of Triticum aestivum (wheat) at 0.1 mM after 5 days relative to untreated control
[15] = test system: Lactuca sativa; assay: Stimulation of germination of Lactuca sativa cv. Nigra (lettuce) at 0.1 mM after 5 days relative to untreated control
[16] = test system: Lepidium sativum; assay: Stimulation of root length of Lepidium sativum at 0.1 mM after 5 days relative to untreated control
[17] = test system: Allium cepa; assay: Stimulation of root length of Allium cepa (onion) at 0.1 mM after 5 days relative to untreated control
[18] = test system: Triticum aestivum; assay: Stimulation of root length of Triticum aestivum (wheat) at 0.1 mM after 5 days relative to untreated control
[19] = test system: Lactuca sativa; assay: Inhibition of root length of Lactuca sativa cv. Nigra (lettuce) at 0.1 mM after 5 days relative to untreated control; settings: 120 h
[20] = test system: Hordeum vulgare; assay: Stimulation of shoot length of Hordeum vulgare (barley) at 0.1 mM after 5 days relative to untreated control
[21] = test system: Lactuca sativa; assay: Inhibition of root length of Lactuca sativa cv. Roman (lettuce) at 0.1 mM after 5 days relative to untreated control; settings: 120 h
[22] = test system: Lactuca sativa; assay: Inhibition of germination of Lactuca sativa cv. Roman (lettuce) at 0.1 mM after 5 days relative to untreated control; settings: 120 h
[23] = test system: Lepidium sativum; assay: Inhibition of shoot length of Lepidium sativum at 0.1 mM after 5 days relative to untreated control; settings: 120 h
[24] = test system: Lepidium sativum; assay: Stimulation of shoot length of Lepidium sativum at 0.1 mM after 5 days relative to untreated control
[25] = test system: Triticum aestivum; assay: Stimulation of germination of Triticum aestivum (wheat) at 0.1 mM after 5 days relative to untreated control
[26] = test system: Allium cepa; assay: Stimulation of shoot length of Allium cepa (onion) at 0.1 mM after 5 days relative to untreated control
[27] = test system: Lactuca sativa; assay: Inhibition of germination of Lactuca sativa cv. Nigra (lettuce) at 0.1 mM after 5 days relative to untreated control; settings: 120 h
[28] = test system: Lactuca sativa; assay: Stimulation of root length of Lactuca sativa cv. Roman (lettuce) at 0.1 mM after 5 days relative to untreated control
[29] = test system: Lepidium sativum; assay: Stimulation of germination of Lepidium sativum at 0.1 mM after 5 days relative to untreated control
[30] = test system: Lepidium sativum; assay: Inhibition of root length of Lepidium sativum at 0.1 mM after 5 days relative to untreated control
[31] = test system: Hordeum vulgare; assay: Inhibition of germination of Hordeum vulgare (barley) at 0.1 mM after 5 days relative to untreated control; settings: 120 h
[32] = test system: Lactuca sativa; assay: Stimulation of root length of Lactuca sativa cv. Nigra (lettuce) at 0.1 mM after 5 days relative to untreated control
[33] = test system: Triticum aestivum; assay: Inhibition of germination of Triticum aestivum (wheat) at 0.1 mM after 5 days relative to untreated control; settings: 120 h
[34] = test system: Hordeum vulgare; assay: Inhibition of shoot length of Hordeum vulgare (barley) at 0.1 mM after 5 days relative to untreated control
[35] = test system: Solanum lycopersicum; assay: Stimulation of root length of Solanum lycopersicum (tomato) at 0.1 mM after 5 days relative to untreated control
[36] = test system: Lactuca sativa; assay: Stimulation of shoot length of Lactuca sativa cv. Roman (lettuce) at 0.1 mM after 5 days relative to untreated control
[37] = test system: Hordeum vulgare; assay: Stimulation of germination of Hordeum vulgare (barley) at 0.1 mM after 5 days relative to untreated control
[38] = test system: Allium cepa; assay: Inhibition of germination of Allium cepa (onion) at 0.1 mM after 5 days relative to untreated control; settings: 120 h
[39] = test system: Lactuca sativa; assay: Inhibition of shoot length of Lactuca sativa cv. Nigra (lettuce) at 0.1 mM after 5 days relative to untreated control; settings: 120 h
[40] = test system: Lactuca sativa; assay: Stimulation of germination of Lactuca sativa cv. Roman (lettuce) at 0.1 mM after 5 days relative to untreated control
[41] = test system: Allium cepa; assay: Inhibition of root length of Allium cepa (onion) at 0.1 mM after 5 days relative to untreated control
[42] = test system: Lactuca sativa; assay: Inhibition of shoot length of Lactuca sativa cv. Roman (lettuce) at 0.1 mM after 5 days relative to untreated control; settings: 120 h

SMILES: COc1nc(C)nc(NC(=O)NS(=O)(=O)c2ccccc2OCCCl)n1 [LOGRAN]
- inhibition at 100 µM ([1]; 120 h): 20%
- Activity [2]: >40%
- inhibition at 100 µM [3]: > 40%
- Activity [4]: >40%
- inhibition at 100 µM [5]: > 40%
- inhibition [6]: inactive
- inhibition at 100 µM [7]: > 40%
- Activity [8]: 20%
- inhibition at 100 µM [9]: 20%
- Activity [10]: >40%
- inhibition at 100 µM [11]: > 40%
- Activity [12]: 20%
- Activity [13]: 20%
- inhibition at 100 µM ([14]; 120 h): 20%
- Activity [15]: >40%
- Activity [16]: >40%
- Activity [17]: >40%
- Activity [18]: 20%
- inhibition at 100 µM [19]: > 40%
- Activity [20]: 20%
- inhibition at 100 µM [21]: > 40%
- inhibition at 100 µM [22]: > 40%
- inhibition at 100 µM [23]: < 20%
- Activity [24]: <20%
- Activity [25]: >40%
- Activity [26]: >40%
- inhibition at 100 µM [27]: > 40%
- Activity [28]: >40%
- Activity [29]: inactive
- inhibition at 100 µM ([30]; 120 h): > 40%
- inhibition at 100 µM [31]: > 40%
- Activity [32]: >40%
- inhibition at 100 µM [33]: > 40%
- inhibition at 100 µM ([34]; 120 h): 20%
- Activity [35]: >40%
- Activity [36]: >40%
- Activity [37]: >40%
- inhibition at 100 µM [38]: 20%
- inhibition at 100 µM [39]: > 40%
- Activity [40]: >40%
- inhibition at 100 µM ([41]; 120 h): > 40%
- inhibition at 100 µM [42]: > 40%

SMILES: COC(=O)[C@@]1(C)CCC[C@@]2(C)[C@H]1CC=C1COC(=O)C[C@@H]12
- inhibition [1]: inactive
- Activity [2]: 20%
- inhibition at 100 µM [3]: > 40%
- Activity [4]: 20%
- inhibition at 100 µM [5]: < 20%
- inhibition [6]: inactive
- inhibition at 100 µM [7]: 20%
- Activity [8]: 20%
- inhibition at 100 µM [9]: < 20%
- Activity [10]: <20%
- inhibition at 100 µM [11]: 20%
- Activity [12]: <20%
- Activity [13]: inactive
- inhibition [14]: inactive
- Activity [15]: <20%
- Activity [16]: inactive
- Activity [17]: inactive
- Activity [18]: inactive
- inhibition at 100 µM [19]: < 20%
- Activity [20]: inactive
- inhibition at 100 µM [21]: < 20%
- inhibition at 100 µM [22]: < 20%
- inhibition at 100 µM [23]: < 20%
- Activity [24]: <20%
- Activity [25]: <20%
- Activity [26]: <20%
- inhibition at 100 µM [27]: < 20%
- Activity [28]: <20%
- Activity [29]: inactive
- inhibition [30]: inactive
- inhibition at 100 µM [31]: > 40%
- Activity [32]: <20%
- inhibition at 100 µM [33]: < 20%
- inhibition [34]: inactive
- Activity [35]: >40%
- Activity [36]: <20%
- Activity [37]: >40%
- inhibition at 100 µM [38]: 20%
- inhibition at 100 µM [39]: < 20%
- Activity [40]: <20%
- inhibition [41]: inactive
- inhibition at 100 µM [42]: < 20%
